# Source: patent EP0966282B1, “USE OF THE ANGIOTENSIN II ANTAGONISTS LOSARTAN AND EXP-3174 TO TREAT SYMPTOMATIC HEART FAILURE” (priority 1997, dated 1998)
# Like-named read-outs stand apart in the source and are kept apart here. Marks after values point to notes of the source that are not given here.
# Legend:
# [1] = test system: older patients with symptomatic heart failure; conditions: for hospitalized overall for any reason: 48-week study observation period, p=0.018
# Excerpt: The study was approved by institutional review boards at each site; all patients gave written informed consent. An independent Data and Safety Monitoring Committee monitored the progress of the study. See Pitt B, Chang P, Timmermans P. Angiotensin II receptor antagonists in heart failure: Rationale and design of the Evaluation of Losartan in the Elderly (ELITE) Trial. Cardiovascular Drugs and Therapy 1995; 9: 693-700.
# A detailed description of enrollment and exclusion criteria and study design has been presented previously. See Pitt B, Chang P, Timmermans P. Angiotensin II receptor antagonists in heart failure: Rationale and design of the Evaluation of Losartan in the Elderly (ELITE) Trial. Cardiovascular Drugs and Therapy 1995; 9: 693-700.
# Titration generally occurred at 7-day intervals as tolerated. Treatment with all other concomitant cardiovascular therapies was permitted with the exception of open-label ACE inhibitors. Randomized patients were stratified by age (less than 70 and 70 years or greater).
# Clinical assessments were performed weekly during titration and at three-month intervals thereafter. Laboratory evaluations were performed at weeks three, six, and twelve, and at three month intervals thereafter.
# See Example 2) Hypotension-related symptoms, clinically important serum potassium increases (≥ 0.5 mEq/L), and cough, all originally secondary endpoints, were moved to tertiary endpoints. All deaths (including cause of death) and hospitalizations were adjudicated by an independent Clinical Endpoint Adjudication Committee, blinded to study treatment (see panel for mortality classification). Other prospectively-defined measures included myocardial infarction/hospitalization for unstable angina, worsening of heart failure, New York Heart Association functional classification, discontinuation from the study due to study drug intolerance, changes in neurohormonal profile.
# • Sudden Cardiac Death: Death occurring without warning or within 1 hour of symptoms • Death due to Progressive Heart Failure: Death preceded by worsening signs and/or symptoms of heart failure, including cardiogenic shock • Fatal Myocardial Infarction: Death associated with autopsy-verified myocardial infarction or death within 28 days of a hospital-verified acute myocardial infarction provided no other cardiac or non-cardiac cause of death is found • Death due to Other Cardiac Causes: Death due to other cardiac causes, such as arrhythmia • Death due to Other Vascular Causes: Death due to vascular events such as stroke, pulmonary embolus, ruptured aneurysm, etc. • Death due to non-cardiovascular causes: Death not due to any cardiac or vascular events
# The power and sample-size estimates for this study have been described. See Pitt B, Chang P, Timmermans P. Angiotensin II receptor antagonists in heart failure: Rationale and design of the Evaluation of Losartan in the Elderly (ELITE) Trial. Cardiovascular Drugs and Therapy 1995; 9: 693-700. Analysis of renal dysfunction (increases in serum creatinine) was based upon a modified intent-to-treat population; i.e., all patients were analyzed according to their randomization group, and an endpoint was declared only if initial and confirmatory elevations occurred while on double-blind therapy. Patients who discontinued from the study without meeting this endpoint were censored in the time-to-event analysis at the time of study discontinuation.
# Analyses of deaths and heart failure hospitalizations (adjudicated endpoints) were based on an intent-to-treat population; all patients discontinued prematurely were followed through the specified 48-week period of the study. Patients not meeting the endpoint were censored in the time-to-event analysis either at the time of study completion (for patients who completed) or at the end of the 48-week follow-up period (for patients who discontinued).
# For all time-to-event data, survival analyses were based upon the log-rank test.
# [2] = test system: patients with symptomatic heart failure; assay: Meta-analysis of clinical events, Protocols A & B (Peto-modified Mantel-Haenszel method); type: in vivo; conditions: for CHF Hospitalization, Odds Ratio / Death, Odds Ratio: Meta-analysis Protocols A & B, odds in placebo group relative to losartan group
# Method: This report summarizes the results of the Meta-analysis performed (as proposed in the Data Analysis Plan) on the observed mortality and congestive heart failure (CHF) hospitalization across these two studies. The mortality and CHF hospitalization were not predefined endpoints in the protocols but it was intended that they be analyzed as a part of safety. Thus results from these analyses should not be interpreted as a test of significance as there were no predefined hypotheses corresponding to these safety parameters. […] Odds ratio's with 95% confidence intervals have been provided for these variables. Peto-modified Mantel-Haenszel (Fleiss, J.L., Statistical Methods for Rates and Proportions, Wiley, NY, 1981.) method was used to carry out the Meta-analysis of death and CHF hospitalization rates in the two 12 week exercise studies. This method assumes homogeneity across the studies and provides a test for heterogeneity. […] Since the results from protocols A and B are consistent, a safety Meta-analysis as proposed in the Data Analysis Plan has been performed. Homogeneity between the two studies with respect to odds ratio's for death and CHF hospitalization was found.
# [3] = losartan compared to captopril, controlled for age category
# [4] = losartan compared to captopril, negative = increase in risk
compound,measurement,setting,value
CCCCc1nc(Cl)c(CO)n1Cc1ccc(-c2ccccc2-c2nn[nH]n2)cc1 [Losartan],hospitalized overall for any reason,[1]; number of patients,86 patients
same,hospitalized overall for any reason,[1],24.4%
same,incidence of heart failure hospitalizations,[1]; 48 weeks,5.7%
same,"Single rises of serum creatinine ≥0.3 mg/dL, risk reduction","[1]; human, in vivo",14%
same,incidence of death due to progressive heart failure,"[1]; human, in vivo",less than one
same,patients discontinued for renal function reason,"[1]; human, in vivo",less than 2%
same,persistent increases in serum creatinine ≥0.3 mg/dL from baseline,"[1]; human, in vivo",10.5%
same,tolerability,"[1]; human, in vivo",better tolerated compared to captopril
same,"Cause of death: Cardiovascular, Fatal Myocardial Infarction","[1]; intent-to-treat, 48 weeks",1 (0.3) number (percent) of patients
same,"Cause of death: Cardiovascular, Other Vascular","[1]; intent-to-treat, 48 weeks",5 (1.4) number (percent) of patients
same,"Cause of death: Cardiovascular, Progressive Heart Failure","[1]; intent-to-treat, 48 weeks",1 (0.3) number (percent) of patients
same,"Cause of death: Cardiovascular, Sudden Death","[1]; intent-to-treat, 48 weeks",5 (1.4) number (percent) of patients
same,Cause of death: Non-cardiovascular,"[1]; intent-to-treat, 48 weeks",5 (1.4) number (percent) of patients
same,Death and/or Hospitalization for Heart Failure,"[1]; intent-to-treat, 48 weeks",33 (9.4) number (percent) of patients
same,Hospitalization for Heart Failure,"[1]; intent-to-treat, 48 weeks",20 (5.7) number (percent) of patients
same,total mortality,"[1]; intent-to-treat, 48 weeks",17 (4.8) number (percent) of patients
same,"Death and/or Hospitalization for Heart Failure, RISK REDUCTION (95% CI)",[1]; [3],"0.32 (- 0.04, 0.55)"
same,"Fatal Myocardial Infarction, RISK REDUCTION (95% CI)",[1]; [3],"0.76 (- 0.83, 0.97)"
same,"Hospitalization for Heart Failure, RISK REDUCTION (95% CI)",[1]; [3],"0.04 (- 0.74, 0.47)"
same,"Non-cardiovascular death, RISK REDUCTION (95% CI)",[1]; [3],"0.35 (- 0.94, 0.78)"
same,"Sudden Death, RISK REDUCTION (95% CI)",[1]; [3],"0.64 ( 0.03, 0.86)"
same,"Total Mortality, RISK REDUCTION (95% CI)",[1]; [3],"0.46 ( 0.05, 0.69)"
same,"Death from Other Vascular causes, RISK REDUCTION (95% CI)",[1]; [4],"-0.03 (- 2.63, 0.71)"
same,"Death from Progressive Heart Failure, RISK REDUCTION (95% CI)",[1]; [4],"-0.11 (-20.23, 0.94)"
same,decrease in total mortality (lower risk of death),"[1]; losartan versus captopril, 48 weeks, P=0.035",46%
same,Fatal myocardial infarction,[1]; number of patients,one
same,died of progressive heart failure,[1]; number of patients in each treatment group,one
same,total mortality,"[1]; number of patients, p=0.035",17 patients
same,sudden cardiac death,"[1]; number of patients, p=0.043",five
same,death and/or heart failure hospitalizations,"[1]; of 352 losartan-treated, of 370 captopril-treated patients",33 patients
same,death and/or heart failure hospitalizations,"[1]; percent of patients, p=0.075",9.4%
same,female patients died,"[1]; subpopulation of female patients: of 118 losartan-treated, of 122 captopril-treated",9 patients
same,patients classified as New York Heart Association Class I or II at the end of the study,"[1]; week 48, versus 66 percent (losartan) and 64 percent (captopril) at baseline",80%
same,"CHF Hospitalization, Odds Ratio",[2],2.4*
same,"Death, Odds Ratio",[2],3.5*
same,"CHF Hospitalization, Odds Ratio",[2]; listed as losartan,2.4
same,"Death, Odds Ratio",[2]; listed as losartan,3.5
same,CHF Hospitalization (during double-blind),[2]; Protocols A & B combined,3.1% ^a
same,Death,"[2]; Protocols A & B combined, during double-blind therapy or related to Serious AE",1.4%
